One data set has as its system Herpes simplex virus. The settings on record: Masakatsu et al. 1977; cited from earlier work.
The subject of the next data set is Vaccinia virus. Particulars: Masakatsu et al. 1977, cited from earlier work.
For data set [1], the system named is Triticum aestivum cv. Hereward detached leaf segments. Briefly: Senescence bioassay on detached wheat leaf segments (chlorophyll retention). Format: in vivo. Particulars: 96 h incubation in the dark at 25° C.; tested 10^−8 M to 10^−4 M. Here is the method: Seeds of winter wheat, Triticum aestivum cv. Hereward, were washed under running water for 24 hours and then sown on vermiculite soaked with Knop's solution. They were placed in the growth chamber at 25° C. with a 16/8 h light period at 50 μmol·m^−2·s^−1. After 7 days, the first leaf was fully developed and the second leaf had started to grow. A tip section of the first leaf, approximately 35 mm long, was removed from 5 seedlings and trimmed slightly to a combined weight of 100 mg. The basal ends of the five leaf tips were placed in the wells of a microtiter polystyrene plate containing 150 μL of the tested derivative solution each. The entire plate was inserted into a plastic box lined with paper tissues soaked in distilled water to prevent leaf sections from drying out. After 96 h incubation in the dark at 25° C., the leaves were removed and chlorophyll extracted by heating at 80° C. for 10 min in 5 mL of 80% ethanol (v/v). The sample volume was then restored to 5 mL by the addition of 80% ethanol (v/v). The absorbance of the extract was recorded at 665 nm. In addition, chlorophyll extracts from fresh leaves and leaf tips incubated in deionised water were measured. The results are means of five replicates and the entire test was repeated twice. […] The compounds to be tested were dissolved in dimethylsulfoxide (DMSO) and the solution brought up to 10^−3M with distilled water. […] The activity obtained for 10^−4 M of BAP was postulated as 100%.

The subject of data set [2] is Arabidopsis wild-type plants (Col-0) detached leaves, gene transcription. The data set is described as follows: Differential gene expression study (RNA sequencing) in detached senescent leaves. Particulars: 10 μM. Format: in vivo. As to the method: For isolation of total RNA, Arabidopsis wild-type plants (Col-0) were used, which were either treated with 3MeOBAPA or left untreated. Wild-type plants were grown in soil for 30 days, and then leaves of similar size and chlorophyll content were cut and immediately used for the treatment. At least 20 detached leaves were submerged in 1×MS medium supplemented with 10 μM 3MeOBAPA. Control samples were mock treated with DMSO only. After incubation for 6 h or 48 h in the dark, detached leaves were frozen in liquid nitrogen and used for RNA isolation; 150 mg of liquid nitrogen-ground material was used per isolation. cDNA sequencing libraries were prepared with the Illumina TruSeq Stranded mRNA LT Sample Prep Kit (Illumina, San Diego, Calif.) according to standard Illumina's protocols and sequenced on HiSeq 2500 apparatus (50 bp single-end reads).
To gain insight into the molecular mechanism of 3MeOBAPA action in Arabidopsis we decided to analyze the gene expression patterns via comparison of mock (DMSO)-treated plants with those obtained after i) short time treatment with 3MeOBAPA (6 h) and ii) long time treatment (48 h). This comparison leads to identification of group of genes with similar kinetic of expression and helps to understand possible mechanism of regulation. For data analysis, we performed ab initio method where sequencing reads were mapped to the reference genome.

Regarding `Cc1cccc(CNc2ncnc3c2ncn3C2OC(CO)C(O)C2O)c1C` (centres unmarked) [2,3-dimethylbenzyl], the “activity in killing Herpes simplex virus” value in the data set with Herpes simplex virus is listed as “No effect”. Further, the “activity in killing Vaccinia virus” value in the data set with Vaccinia virus was “No effect”.

Turning to `Cc1ccc(CNc2ncnc3c2ncn3C2OC(CO)C(O)C2O)c(C)c1` (centres unmarked) [2,4-dimethylbenzyl], the “activity against Vaccinia virus, strain IHD” value in the data set with Vaccinia virus is given as “low activity”.

In the case of `Cc1ccc(C)c(CNc2ncnc3c2ncn3C2OC(CO)C(O)C2O)c1` (centres unmarked) [2,5-dimethylbenzyl], in the data set with Vaccinia virus, the “activity against Vaccinia virus, strain IHD” value was “low activity”.

For `Cc1cccc(C)c1CNc1ncnc2c1ncn2[C@@H]1O[C@H](CO)[C@@H](O)[C@@H]1O` [2,6-dimethylbenzyl], the “activity in killing Herpes simplex virus” value in the data set with Herpes simplex virus was “No effect”. Further, the “activity in killing Vaccinia virus” value in the data set on Vaccinia virus was “No effect”.

Consider `Cc1ccccc1CNc1ncnc2c1ncn2[C@@H]1O[C@H](CO)[C@@H](O)[C@@H]1O` [2-methylbenzyl], for which the “activity in killing Herpes simplex virus” value in the data set on Herpes simplex virus was “No effect”. The “activity in killing Vaccinia virus” value with Vaccinia virus is listed as “No effect”.

Take `Cc1ccc(CNc2ncnc3c2ncn3[C@@H]2O[C@H](CO)[C@@H](O)[C@@H]2O)cc1C` [3,4-dimethylbenzyl]: the “activity in killing Herpes simplex virus” value in the data set with Herpes simplex virus is “No effect”. Besides, in the data set with Vaccinia virus, the “activity in killing Vaccinia virus” value is recorded as “No effect”.

For the compound `COc1cccc(CNc2ncnc3c2ncn3[C@@H]2O[C@H](CO)[C@@H](O)[C@@H]2O)c1` [6-(3-methoxybenzylamino)-9-β-D-arabinofuranosylpurine], the maximum effective concentration in data set [1] was 10^−4 mol · l^−1. In addition, in data set [2] (6 h), the “logFC AT1G10585 Basic helix-loop-helix (bHLH) DNA-binding superfamily protein” value was determined as 0.38; the “logFC AT1G15540 2-oxoglutarate and Fe(II)-dependent oxygenase superfamily protein” value amounted to 0.57; the “logFC AT1G19670 Chlorophyllase-1 (CLH1)” value is on record as 0.63; the “logFC AT1G59860 17.6 kDa class I heat shock protein 1 (HSP17.6A)” value is 0.48. Moreover, in data set [2] (6 h), the “logFC AT1G76640 Calcium-binding EF-hand family protein (CML39)” value is 0.78, the “logFC AT2G02010 Glutamate decarboxylase 4 (GAD4)” value came to 0.55, the “logFC AT2G18150 Peroxidase 15 (PER15)” value was found to be 0.68 and the “logFC AT2G21900 WRKY transcription factor 59 (WRKY59)” value was 0.54. In data set [2] (6 h), the “logFC AT2G26695 Ran BP2/NZF zinc finger-like superfamily protein” value stood at 0.50, the “logFC AT2G28210 Alpha carbonic anhydrase 2 (ATACA2)” value was 0.85, the “logFC AT2G37430 Zinc finger protein ZAT11” value worked out at 0.42 and the “logFC AT2G39030 L-ornithine N5-acetyltransferase (NATA1)” value worked out at 0.56. In data set [2] (6 h), the “logFC AT2G47040 Pectin methylesterase Vanguard1 (VGD1)” value worked out at 2.80, the “logFC AT3G05610 Pectinesterase/pectinesterase inhibitor 21 (PME21)” value amounted to 1.80, the “logFC AT3G09340 Transmembrane amino acid transporter family protein” value came to 0.55 and the “logFC AT3G11340 UDP-Glycosyltransferase superfamily protein” value amounted to 0.51. Besides, in data set [2] (6 h), the “logFC AT3G13400 SKU5 similar 13 (SKS13)” value is 0.82, the “logFC AT3G28153 Transposable element gene” value is 0.92, the “logFC AT3G28155 ARM repeat superfamily protein” value is 0.59 and the “logFC AT3G44830 Putative phospholipid:diacylglycerol acyltransferase 2 (PDAT2)” value is 0.38. For the same compound, in data set [2] (6 h), the “logFC AT4G01390 TRAF-like family protein” value was 0.79; the “logFC AT4G21830 Peptide methionine sulfoxide reductase B7 (MSRB7)” value is recorded as 0.55; the “logFC AT4G22030 F-box domain, cyclin-like, F-box domain, Skp2-like protein” value is given as 0.41; the “logFC AT4G22620 SAUR-like auxin-responsive family protein” value stood at 0.46. Further, in data set [2] (6 h), the “logFC AT4G24350 Phosphorylase superfamily protein” value was determined as 0.64, the “logFC AT4G26010 Peroxidase 44 (PER44)” value was determined as 0.53, the “logFC AT4G31950 Cytochrome P450 82C3 (CYP82C3)” value stood at 0.37 and the “logFC AT4G37780 Myb domain protein 87 (MYB87)” value was 0.41. For the same compound, in data set [2] (6 h), the “logFC AT4G39320 Microtubule-associated protein-related” value stood at 0.45, the “logFC AT5G03610 GDSL esterase/lipase” value was found to be 0.42, the “logFC AT5G52670 Copper transport family protein” value is given as 0.57 and the “logFC AT5G62720 Integral membrane HPP family protein” value amounted to 0.44. Also, in data set [2] (6 h), the “logFC AT5G63270 RPM1-interacting protein 4 (RIN4) family protein” value is listed as 0.56. Further, in data set [2] (48 h), the “logFC AT2G26695 Ran BP2/NZF zinc finger-like superfamily protein” value is given as 5.90, the “logFC AT3G11340 UDP-Glycosyltransferase superfamily protein” value turned out to be 6.60 and the “logFC AT3G28153 Transposable element gene” value is 5.70. The “number of downregulated genes (P≤0.05)” value in data set [2] (long time treatment (48 h) vs mock (DMSO)) is 7 095 genes.

`OC[C@H]1O[C@@H](n2cnc3c(NCc4ccccc4)ncnc32)[C@@H](O)[C@@H]1O` [6-benzylamino-9-β-D-arabinofuranosylpurine]: in the data set with Herpes simplex virus, the “activity in killing Herpes simplex virus” value is “No effect”. In addition, in the data set on Vaccinia virus, the “activity in killing Vaccinia virus” value was “No effect”.

The values are drawn from patent publication US10550144B2, “6-aryl-9-glycosylpurines and use thereof” (UNIVERZITA PALACKEHO V OLOMOUCI, priority 2014, dated 2020).
